Reference: patent US4696920A, “Certain 2-substituted 1,3-propylidenediphosphonate derivatives, pharmaceutical compositions containing them and their use as antihypertensive agents” (priority 1984, dated 1987)

How the values were obtained:
[1] = system: [^3 H]-PN-200 110 (dihydropyridine) binding site of calcium channel, rat brain membranes; assay: [^3 H]-PN-200 110 binding to rat brain membranes; parameters: species or system rat (male Wistar); details: Table 1b; for Specifically bound [^3 H]-PN-200 110 % of control value: compound concentration 1.0 μM; for Bound ^3 H at 1.0 μM / Bound ^3 H at 0.1 μM: ratio of [^3 H]-PN-200 110 bound at 1.0 and 0.1 μM compound
Procedure: (§1) Diltiazem hydrochloride was a generous gift from Goedecke A. G.
Water insoluble compounds were dissolved in absolute ethanol to give 10 mM or 2.5 mM stock solutions. Suitable dilutions were made in 50 mM Tris-HCl buffer (pH 7.4) containing 150 mM NaCl and 1 mM CaCl2. The ethanol concentration in the final assay never exceeded 0.1%.
(§2) The purity of the radioligand and of the various agents tested was monitored by thin layer chromatography on silica gel plates.
(§3) The following procedure was adapted from Bellemann et al (Proc. Nat. Acad. Sci. 80, 2356, 1983), and Gould et al (Proc. Nat. Acad. Sci. 79, 3656, 1982).
(§4) Adult male Wistar rats weighing 250-300 g were anesthetized with carbon dioxide prior to decapitation. The brain was removed then immersed in ice-cold 0.32M sucrose and washed 2-3 times with fresh solution. Cerebral cortex was minced and homogenized (Potter-Elvehjem homogenizer) in 10 volumes of ice-cold sucrose solution. The homogenate was centrifuged (4° C.) at 1000×g for 15 minutes. The resulting supernatant was then centrifuged at 90000×g (30 minutes) and the pellet was washed twice with 20 ml ice-cold 50 mM Tris-HCl pH 7.4.
(§5) The final pellet was resuspended in 50 mM Tris-HCl pH 7.4/150 mM NaCl/1 mM CaCl2 to give a protein concentration of 4 mg/ml.
(§6) The membrane suspension was kept on ice until used. Binding assays were performed in subdued light to prevent dihydropyridine breakdown. Membrane protein (400 μg/tube) was incubated in 50 mM Tris-HCl buffer (pH 7.4)/150 mM NaCl/1 mM CaCl2 with the indicated concentrations of radioligand and test compounds or known calcium antagonists, in a total volume of 2 ml. After the indicated time intervals, the reaction was terminated by rapid filtration through Whatman GF/B glass fiber filters (2.4 cm diameter) on a Millipore filter holder. The assay tube was rinsed with 2 ml ice-cold 50 mM Tris-HCl pH (7.4) and the precipitate was further washed with 2×5 ml of the same buffer.
(§7) Filters were dried under a heat lamp and were extracted with 10 ml of liquid scintillation cocktail (Toluene/Triton X-100, 2/1 containing 4 g Omnifluor/1) prior to tritium determination at 48% counting efficiency.
(§8) Assays were performed in duplicate or triplicate.
(§9) Data were expressed as percent specific [^3 H]-Nitrendipine binding relative to the established control value.
(§10) Compound activity in the [^3 H]-Nitrendipine binding assay was evaluated by using the following criteria:
(§11) 1. [^3 H]-Nitrendipine binding at 1.0 μM compound final concentration was either below 95% or above 105% of the control value determined in absence of compound.
2. The ratio obtained by dividing the amount of specifically found [^3 H]-Nitrendipine at 1.0 μM compound final concentration by the value obtained at 0.1 μM test compound, was smaller than 0.9 or greater than 1.1. This ratio is indicative of a dose response relationship within the compound concentration range tested, when the value differs appreciably from 1.0.
Note: In some experiments [^3 H]-PN200 110, a new and commercially available specific dihydropyridine was used instead of [^3 H]-Nitrendipine.

[2] = system: mean blood pressure in rat; assay: Acute intravenous hypotensive activity in anesthetized rats; assay type: in vivo, rat (male Wistar); details: Rattus norvegicus, iv, read-out: Decrease in mean blood pressure (% pretest)
Procedure: Male Wistar rats were anesthetized with Pentobarbital (Nembutal, 60 mg/kg i.p.) and heparinized (5 mg/kg i.p.). After tracheotomy the right carotid was cannulated (catheter PE 50); blood pressure was measured with a pressure transducer (Statham P 23 db) and recorded on a polygraph (Beckman).
Animals received 0.5 and 1.5 mg/kg of the test compounds. Less than 100 μl of test compounds dissolved in 0.9% saline were injected in the jugular vein. Highly water insoluble compounds were suspended in 2% Tween-80. Injection of the vehicle alone had no detectable hypotensive effect.
Results presented are expressed as percent decrease in initial mean blood pressure (Mean±SEM).

[3] = system: drug receptor sites associated with calcium channels; details: known calcium antagonists; cited from earlier work
[4] = system: calcium channel binding site for [^3 H]-Nitrendipine (rat brain membranes); assay: [^3 H]-Nitrendipine binding to rat brain membranes; parameters: species or system rat (male Wistar); details: Table 1a
Procedure: as §1
Suitable dilutions were made in 50 mM Tris-HCl buffer (pH 7.4) containing 150 mM NaCl and 1 mM CaCl2. The ethanol concentration in the final assay never exceeded 0.1%.
as §2, §3, §4, §5, §6, §7, §8, §9, §10, §11
2. […] This ratio is indicative of a dose response relationship within the compound concentration range tested, when the value differs appreciably from 1.0.

[5] = system: rat trachea contraction induced by KCl depolarization; assay: KCl-induced rat trachea contraction; parameters: species or system rat (male SHR, Okamoto-Aoki)
Procedure: Spontaneously hypertensive male rats (SHR) Okamoto-Aoki Strain, weighing 300-400 g were used in this study. They were killed by bleeding after Pentobarbital anesthesia (Nembutal, Abbott Co, 40 mg/kg). Their entire trachea was quickly removed and dissected free of fat and connective tissue in Krebs-Ringer solution. A strip (4 mm×40 mm), obtained by spirally cutting the trachea, was immediately suspended in a 50 ml Krebs-Ringer solution and continuously bubbled with a O2 /CO2 (95/5) mixture. Bath temperature was maintained at 37±1° C. The composition (mM) of the Krebs-Ringer solution modified by Nghiem, was as follows: NaCl, (118.0); KCl, (4.7); CaCl2, (2.5); MgCl2, (1.18); NaHCO3, (12.5); KH2 P04, (1.18); glucose, (5.5) in bidistilled water (pH 7.4). Each strip was equilibrated under initial tension (1.5-2 g) for 1-2 hours and the bath solution changed every 30 min. A contractile or relaxant response was isometrically measured with a force-displacement transducer (Ugo-Basile) and recorded on a polygraph (Beckman).
After equilibration, KCl was added to the bath at 65 mM final concentration. This concentration produced maximum trachea contraction. Under these conditions, a plateau phase showing a tonic sustained contraction was reached within 30 minutes. Drugs were added 30 minutes after the plateau phase has been reached (final concentration=1.0 μM). […] Recordings of the residual trachea contraction were made 40 minutes after drug addition to the bathing fluid. The initial KCl induced contraction was taken as the maximum KCl response (100%). Results were expressed as % of maximal contraction. Nifedipine, Prenylamine, Flunarizine and Diltiazem were used as reference standards to validate this assay.
All 1,3-diphosphonates and drugs were dissolved in saline (0.9% NaCl) except when water insoluble, then the compounds were dissolved in 2% ethanol. The final concentration of ethanol used has been shown not to interfere with the assay.
Results are expressed as mean values±SEM, the Student's t-test was used for statistical analysis.

CCCCOP(=O)(CC(Cc1cnc(C)c2c1COC(C)(C)O2)CP(=O)(OCCCC)OCCCC)OCCCC [Compound 101]
Specifically bound [^3 H]-PN-200 110 % of control value [1]: 47 % of control value | Bound ^3 H at 1.0 μM / Bound ^3 H at 0.1 μM [1]: 0.527

CCCCOP(=O)(CC(Cc1cnc(C)c(O)c1CO)CP(=O)(OCCCC)OCCCC)OCCCC [Compound 102, Tetrabutyl 2-[5-(3-hydroxy-4-hydroxymethyl-2-methyl)pyridylmethyl]1,3-propylidenediphosphonate]
Specifically bound [^3 H]-PN-200 110 % of control value [1]: 89 % of control value | Bound ^3 H at 1.0 μM / Bound ^3 H at 0.1 μM [1]: 0.925

C[C@H](CS)C(=O)N1CCC[C@H]1C(=O)O [Captopril, reference compound]
inhibition in vivo at 1 mg/kg [2]: 0%

CCCCOP(=O)(CC(CCCc1ccc([N+](=O)[O-])cc1[N+](=O)[O-])CP(=O)(OCCCC)OCCCC)OCCCC [Compound 98]
Specifically bound [^3 H]-PN-200 110 % of control value [1]: 19 % of control value | Bound ^3 H at 1.0 μM / Bound ^3 H at 0.1 μM [1]: 0.780

COc1ccc(CCN(C)CCCC2(c3ccc(OC)c(OC)c3)S(=O)(=O)CCCS2(=O)=O)cc1OC [Tiapamil]
effect on [^3 H]-Nitrendipine binding (in words) [3]: reduce [^3 H]-Nitrendipine binding affinity

CCOP(=O)(CC(CCOc1ccccc1)CP(=O)(OCC)OCC)OCC [Compound 33]
inhibition in vivo at 0.5 mg/kg [2]: 13.2% | inhibition in vivo at 1.5 mg/kg [2]: 16 ± 0.6%

Cc1cccc(C)c1NC(=O)CN1CCN(CCCC(c2ccc(F)cc2)c2ccc(F)cc2)CC1 [Lidoflazine]
effect on [^3 H]-Nitrendipine binding (in words) [3]: reduce [^3 H]-Nitrendipine binding affinity

CC(C)NCC(O)COc1cccc2ccccc12 (centres unmarked) [Propranolol, reference compound]
inhibition in vivo at 1 mg/kg [2]: 11.8 ± 1.1%

CCCCOP(=O)(CC(CCOc1cc(C)ccc1C)CP(=O)(OCCCC)OCCCC)OCCCC [Compound 77]
Specifically bound [^3 H]-PN-200 110 % of control value [1]: 19 % of control value | Bound ^3 H at 1.0 μM / Bound ^3 H at 0.1 μM [1]: 0.337

CCCOP(=O)(CC(CCOc1ccccc1)CP(=O)(OCCC)OCCC)OCCC [Compound 52]
Specifically bound [^3 H]-PN-200 110 % of control value [1]: 9 % of control value | Bound ^3 H at 1.0 μM / Bound ^3 H at 0.1 μM [1]: 0.227

COc1ccc(CCN(C)CCCC(C#N)(c2cc(OC)c(OC)c(OC)c2)C(C)C)cc1OC [Compound D-600]
effect on [^3 H]-Nitrendipine binding (in words) [3]: reduce [^3 H]-Nitrendipine binding affinity

CCOP(=O)(CC(Cc1ccccc1)CP(=O)(OCC)OCC)OCC [Compound 25, Tetraethyl 2-benzyl-1,3-propylidenediphosphonate]
Specifically bound [^3 H]-Nitrendipine % of control value ([4]; compound concentration 1.0 μM): 100 % of control value | Bound ^3 H at 1.0 μM / Bound ^3 H at 0.1 μM ([4]; ratio of [^3 H]-Nitrendipine bound at 1.0 and 0.1 μM compound): 1.060 | activity at 1 µM ([5]; Rattus norvegicus, 40 min, read-out: Contraction (% max.)): 53 ± 2.5% | activity on KCl-induced trachea contraction (in words) ([5]; final concentration 1.0 μM): potent pharmacological activity | inhibition in vivo at 0.5 mg/kg [2]: 23.2 ± 2.2% | inhibition in vivo at 1.5 mg/kg [2]: 41.4 ± 1%
